# Assay results reported in paper PMC12010322, “ReaxFF-Guided Optimization of VIRIP-Based HIV-1 Entry Inhibitors” (The Journal of Physical Chemistry. B, 2025).
# “Also recorded” adds a separate entry of the source. Bridge positions count the residues as written; N and C are the ends. Ends that are not written are not given here. Peptide text beside a SMILES is read from it.
# Columns and labels:
# [1] = system: HIV-1 CH042 (clade C transmitted-founder); conditions: TZM-bl cells, clade C CH042 TF HIV-1
# Method: (§1) Figure 3 Size optimization of VIR-148. (A) TZM-bl reporter cells were incubated with increasing concentrations of VIR-148, VIR-102, or the indicated internally truncated itVIRIP derivatives. Cells were subsequently infected with HIV-1 NL4-3, and beta-galactosidase activity was determined 3 days after infection. (B) Hemolytic effect of indicated compounds on human erythrocytes. Each tile represents the area under the curve (AUC) for hemolytic activity. Full hemolysis is represented by a Triton-X control. (C) Amino acid alignment of the FP regions (red) of HIV-1 CH042, CH077, SIVmac239 and HIV-2 ROD10. (D) TZM-bl cells were incubated with increasing concentrations of VIR-148 or soVIRIP and subsequently infected with the HIV-1 CH042 or CH077, SIVmac239 or HIV-2 ROD10. […] The contribution of each amino acid to the binding interaction is indicated by color saturation. (F) Time-resolved ReaxFF-based molecular dynamics simulation of the interaction between soVIRIP and the HIV-1 FP. The trajectories are shown for VIR-148 (blue) and soVIRIP (orange). (G) Correlation between the free energy contribution of each amino acid of soVIRIP with the corresponding amino acid in VIR-148, based on ReaxFF simulations.
# (§2) To determine infectious virus yield, 10,000 TZM-bl reporter cells/well were seeded in 96-well plates and infected with cell culture supernatants, under reduced 1% FCS conditions, in triplicates on the following day. Three days p.i., cells were lysed and β-galactosidase reporter gene expression was determined using the GalScreen Kit (Applied Bioscience) according to the manufacturer’s instructions with an Orion microplate luminometer (Berthold).
# (§3) 10,000 TZM-bl reporter cells were seeded in 96-well plates in 100 μL of supplemented DMEM. The following day, the medium was changed to reduced 1% FCS-supplemented DMEM, and serially diluted peptide was added to the cells. The cells were subsequently infected with 10 μL of infectivity-normalized virus stocks. At 3 days postinfection, the supernatant was removed, and β-galactosidase activity was measured as previously described.
# [2] = system: HIV-1 CH077 (clade B transmitted-founder); conditions: TZM-bl cells, clade B CH077 TF HIV-1
# Method: as §1, §2, §3
# zebrafish embryos = assay: Zebrafish embryo toxicity; conditions: for toxicity in zebrafish embryos: embryos exposed from 24 hpf for 24 h, 60 embryos per group, two experiments, NRC-03 3 μM, abamectin 3.125 μM
# Method: For in vivo studies, wild-type zebrafish embryos (Danio rerio) were dechorionated at 24 h post fertilization (hpf) using digestion with 1 mg/mL Pronase (Sigma) in E3 medium ([…]). In a 96-well plate, 3 embryos per well were exposed for 24 h to 100 μL of E3 containing VIRIP peptides at the concentrations indicated in the figures. Two independent assays were performed, each with 10 × 3 embryos. The peptide solvent (DMSO), diluted in E3, was used as negative control at the same amount as introduced by the peptide stock. […] Abamectin at a concentration of 3.125 μM was used as positive control for neurotoxicity.[49] At 48 hpf (after 24 h of incubation) embryos were scored in a stereomicroscope for signs of cytotoxicity (lysis and/or necrosis), developmental toxicity (delay and/or malformations) or cardiotoxicity (heart edema and/or reduced or absent circulation). Each embryo was also touched with a needle and reduced or absent touch response (escape movements) was evaluated as signs of neurotoxicity if and only if no signs of acute toxicity were present in the same embryo. Embryos were categorized within each of these toxicity categories into several classes of severity.[35]
# HIV-1 NL4-3 = system: HIV-1 NL4-3
# Description: To further define critical residues and to assess whether the loop structure is required for antiviral activity, we generated short peptides of six, seven or ten amino acids corresponding to the C- or N-termini of VIR-148, respectively. To determine their antiviral activity, we pretreated TZM-bl reporter cells with various concentrations of individual or mixed peptides and subsequently exposed them to the CXCR4-tropic HIV-1 NL4–3 strain. TZM-bl reporter cells are highly susceptible to HIV-1 infection and contain the β-galactosidase reporter gene under the control of the HIV-1 long terminal repeat.[34] Three days later, infection was quantified by β-galactosidase assay.
# as §2, §3
# SIVmac239 = assay: TZM-bl infection inhibition, SIVmac239; assay type: cell-based, SIVmac; conditions: TZM-bl cells
# Method: (§4) Figure 3 Size optimization of VIR-148. (A) TZM-bl reporter cells were incubated with increasing concentrations of VIR-148, VIR-102, or the indicated internally truncated itVIRIP derivatives. Cells were subsequently infected with HIV-1 NL4-3, and beta-galactosidase activity was determined 3 days after infection. (B) Hemolytic effect of indicated compounds on human erythrocytes. Each tile represents the area under the curve (AUC) for hemolytic activity. Full hemolysis is represented by a Triton-X control. (C) Amino acid alignment of the FP regions (red) of HIV-1 CH042, CH077, SIVmac239 and HIV-2 ROD10. […]
# as §2
# (§5) 10,000 TZM-bl reporter cells were seeded in 96-well plates in 100 μL of supplemented DMEM. […] At 3 days postinfection, the supernatant was removed, and β-galactosidase activity was measured as previously described.
# HIV-2 ROD10 = assay: TZM-bl infection inhibition, HIV-2 ROD10; assay type: cell-based; conditions: TZM-bl cells
# Method: as §4, §2, §5
Compound,IC50 [1],IC50 [2],toxicity in zebrafish embryos (zebrafish embryos),IC50 (HIV-1 NL4-3; NL4-3),"antiviral activity (in words) (HIV-1 NL4-3; TZM-bl reporter cells, HIV-1 NL4-3, β-galactosidase 3 days postinfection)",higher antiviral activity compared to the original VIRIP (HIV-1 NL4-3; ratio of IC50 values),activity against SIVmac239 (SIVmac239),activity against HIV-2 ROD10 (HIV-2 ROD10),nontoxic concentration relative to IC50 against primary HIV-1 strains (zebrafish embryos; zebrafish embryos)
"CC[C@H](C)[C@H](NC(=O)[C@H](C)NC(=O)[C@H](CCC(=O)O)NC(=O)[C@@H](N)CC(C)C)C(=O)N1CCC[C@H]1C(=O)N[C@H]1CSSC[C@@H](C(=O)N[C@H](C(=O)N[C@@H](C)C(=O)N[C@@H](Cc2ccccc2)C(=O)N[C@@H](CC(N)=O)C(=O)N[C@@H](CCCCN)C(=O)N2CCC[C@H]2C(=O)N[C@@H](Cc2ccccc2)C(=O)N[C@H](C(=O)N[C@@H](Cc2ccccc2)C(=O)O)C(C)C)C(C)C)NC(=O)[C@@H]2CCCN2C(=O)[C@@H]2CCCN2C(=O)[C@H]([C@@H](C)CC)NC(=O)[C@H](CO)NC1=O [VIR-148, reference compound] (H-LEAIPCSIPPCVAFNKPFVF-OH; disulfide 6-11)",37 nM,39 nM,–,–,–,–,–,–,–
"GRRKRKWLRRIGKGVKIIGG AALDHL-NH2 [NRC-03, reference compound]",–,–,exhibited the expected toxicities,–,–,–,–,–,–
LEAIPVAFVF [soVIRIP],37 nM,39 nM,did not display significant toxic effects; also recorded: nontoxic,120 nM,maintained full antiviral activity,more than 100 fold,inactive,inactive,"about 2,500 fold"
abamectin [reference compound],–,–,exhibited the expected toxicities,–,–,–,–,–,–
